Each block holds one molecule with its values, some of them ahead of it.
Assays:
Assay in all cases: radiometric filter-binding kinase assay
[1] = biological target: MAPK15 (human) (UniProt Q8TD08)
[2] = biological target: BRSK1 (human) (UniProt Q8TDC3)
[3] = biological target: PLK1 (human) (UniProt P53350)
[4] = biological target: FGFR1 (human) (UniProt P11362)
[5] = biological target: SRPK1 (human) (UniProt Q96SB4)
[6] = biological target: EEF2K (human) (UniProt O00418)
[7] = biological target: ERBB4 (human) (UniProt Q15303)
[8] = biological target: MKNK2 (human) (UniProt Q9HBH9)
[9] = tested on: PAK2 (human), Q13177 [T402E]
[10] = biological target: CSK (human) (UniProt P41240)
[11] = biological target: PAK7 (human) (UniProt Q9P286)
[12] = biological target: MAPKAPK3 (human) (UniProt Q16644)
[13] = biological target: AURKA (human) (UniProt O14965)
[14] = biological target: MAP3K5 (human) (UniProt Q99683)
[15] = biological target: BRSK2 (human) (UniProt Q8IWQ3); conditions: compound 10.0 µM
[16] = biological target: MAPK9 (human) (UniProt P45984)
[17] = biological target: GSK3B (human) (UniProt P49841)
[18] = biological target: MAP3K1 (human) (UniProt Q13233)
[19] = biological target: CSNK1D (human) (UniProt P48730)
[20] = biological target: EPHA4 (human) (UniProt P54764)
[21] = biological target: MAP2K2 (human) (UniProt P36507)
[22] = biological target: MAPK8 (human) (UniProt P45983)
[23] = biological target: MAP2K6 (human) (UniProt P52564)
[24] = biological target: HIPK1 (human) (UniProt Q86Z02)
[25] = biological target: IKBKB (human) (UniProt O14920)
[26] = biological target: HIPK3 (human) (UniProt Q9H422)
[27] = biological target: MAPK3 (human) (UniProt P27361)
[28] = biological target: MAPK1 (human) (UniProt P28482)
[29] = biological target: BTK (human) (UniProt Q06187)
[30] = biological target: TBK1 (human) (UniProt Q9UHD2)
[31] = biological target: STK11 CAB39 STRADA (human) (UniProt Q9Y376+Q7RTN6+Q15831)
[32] = biological target: RPS6KA3 KD1 KD2 (human) (UniProt P51812)
[33] = biological target: NEK6 (human) (UniProt Q9HC98)
[34] = tested on: AKT1 (human), P31749 [S473D]
[35] = biological target: RPS6KA5 KD1 KD2 (human) (UniProt O75582)

Chain of MAP2K6 (human) (P52564 whole entry, looked up): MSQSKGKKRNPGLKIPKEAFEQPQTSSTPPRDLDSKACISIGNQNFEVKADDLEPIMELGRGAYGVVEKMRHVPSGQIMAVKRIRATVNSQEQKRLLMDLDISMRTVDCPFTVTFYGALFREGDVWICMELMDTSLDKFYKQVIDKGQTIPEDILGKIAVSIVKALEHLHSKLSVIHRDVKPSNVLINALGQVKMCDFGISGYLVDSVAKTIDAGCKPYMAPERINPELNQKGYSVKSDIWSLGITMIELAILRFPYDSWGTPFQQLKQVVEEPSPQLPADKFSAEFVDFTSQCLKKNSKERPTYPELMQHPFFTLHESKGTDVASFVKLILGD
Chain of GSK3B (human) (P49841 whole entry, looked up): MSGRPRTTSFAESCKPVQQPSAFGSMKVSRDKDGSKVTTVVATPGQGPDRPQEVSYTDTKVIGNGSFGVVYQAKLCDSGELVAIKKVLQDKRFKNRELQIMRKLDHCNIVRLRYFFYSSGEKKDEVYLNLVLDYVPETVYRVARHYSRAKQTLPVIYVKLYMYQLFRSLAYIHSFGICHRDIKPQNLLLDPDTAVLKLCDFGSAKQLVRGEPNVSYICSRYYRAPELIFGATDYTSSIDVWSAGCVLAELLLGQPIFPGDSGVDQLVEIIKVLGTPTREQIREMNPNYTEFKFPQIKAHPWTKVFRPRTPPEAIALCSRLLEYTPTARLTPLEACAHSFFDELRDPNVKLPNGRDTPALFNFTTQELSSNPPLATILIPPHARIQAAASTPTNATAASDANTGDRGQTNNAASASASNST
Chain of MAP3K1 (human) (Q13233 whole entry, looked up): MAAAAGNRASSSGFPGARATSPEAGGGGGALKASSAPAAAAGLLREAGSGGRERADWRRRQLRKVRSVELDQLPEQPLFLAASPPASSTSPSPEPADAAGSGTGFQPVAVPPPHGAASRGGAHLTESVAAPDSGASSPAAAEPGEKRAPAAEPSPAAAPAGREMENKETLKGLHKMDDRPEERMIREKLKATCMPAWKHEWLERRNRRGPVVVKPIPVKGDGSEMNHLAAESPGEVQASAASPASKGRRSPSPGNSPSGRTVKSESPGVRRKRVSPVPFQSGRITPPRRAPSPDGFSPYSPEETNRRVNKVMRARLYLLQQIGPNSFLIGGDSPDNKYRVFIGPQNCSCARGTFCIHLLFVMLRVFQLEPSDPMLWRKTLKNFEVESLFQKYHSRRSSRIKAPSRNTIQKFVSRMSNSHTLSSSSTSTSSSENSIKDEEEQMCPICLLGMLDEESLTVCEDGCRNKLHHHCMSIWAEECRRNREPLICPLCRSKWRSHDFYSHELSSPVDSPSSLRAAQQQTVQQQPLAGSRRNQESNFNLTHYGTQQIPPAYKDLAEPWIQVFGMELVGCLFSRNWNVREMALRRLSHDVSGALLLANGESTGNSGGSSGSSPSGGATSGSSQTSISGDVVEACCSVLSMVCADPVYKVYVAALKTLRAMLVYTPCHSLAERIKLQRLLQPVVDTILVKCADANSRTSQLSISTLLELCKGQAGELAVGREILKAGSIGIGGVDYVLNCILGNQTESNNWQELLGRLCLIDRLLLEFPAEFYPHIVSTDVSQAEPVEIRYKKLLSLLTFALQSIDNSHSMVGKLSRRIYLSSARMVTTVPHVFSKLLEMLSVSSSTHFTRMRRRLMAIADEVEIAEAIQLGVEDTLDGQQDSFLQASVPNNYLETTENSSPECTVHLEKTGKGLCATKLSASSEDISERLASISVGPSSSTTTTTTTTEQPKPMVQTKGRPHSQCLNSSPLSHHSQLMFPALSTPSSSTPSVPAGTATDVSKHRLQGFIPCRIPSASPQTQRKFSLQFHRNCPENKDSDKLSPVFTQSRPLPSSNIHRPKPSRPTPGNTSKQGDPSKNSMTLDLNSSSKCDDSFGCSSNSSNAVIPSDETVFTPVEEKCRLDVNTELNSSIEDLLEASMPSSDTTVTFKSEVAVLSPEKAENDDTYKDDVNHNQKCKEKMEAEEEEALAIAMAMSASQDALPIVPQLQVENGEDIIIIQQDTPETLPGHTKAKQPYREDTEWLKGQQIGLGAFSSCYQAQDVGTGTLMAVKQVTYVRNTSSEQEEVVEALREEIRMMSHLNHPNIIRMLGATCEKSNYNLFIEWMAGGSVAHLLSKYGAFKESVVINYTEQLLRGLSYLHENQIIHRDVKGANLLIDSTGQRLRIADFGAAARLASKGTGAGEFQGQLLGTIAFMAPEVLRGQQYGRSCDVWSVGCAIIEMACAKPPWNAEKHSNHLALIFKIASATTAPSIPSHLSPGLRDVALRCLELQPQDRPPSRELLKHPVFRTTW
Chain of BTK (human) (Q06187 whole entry, looked up): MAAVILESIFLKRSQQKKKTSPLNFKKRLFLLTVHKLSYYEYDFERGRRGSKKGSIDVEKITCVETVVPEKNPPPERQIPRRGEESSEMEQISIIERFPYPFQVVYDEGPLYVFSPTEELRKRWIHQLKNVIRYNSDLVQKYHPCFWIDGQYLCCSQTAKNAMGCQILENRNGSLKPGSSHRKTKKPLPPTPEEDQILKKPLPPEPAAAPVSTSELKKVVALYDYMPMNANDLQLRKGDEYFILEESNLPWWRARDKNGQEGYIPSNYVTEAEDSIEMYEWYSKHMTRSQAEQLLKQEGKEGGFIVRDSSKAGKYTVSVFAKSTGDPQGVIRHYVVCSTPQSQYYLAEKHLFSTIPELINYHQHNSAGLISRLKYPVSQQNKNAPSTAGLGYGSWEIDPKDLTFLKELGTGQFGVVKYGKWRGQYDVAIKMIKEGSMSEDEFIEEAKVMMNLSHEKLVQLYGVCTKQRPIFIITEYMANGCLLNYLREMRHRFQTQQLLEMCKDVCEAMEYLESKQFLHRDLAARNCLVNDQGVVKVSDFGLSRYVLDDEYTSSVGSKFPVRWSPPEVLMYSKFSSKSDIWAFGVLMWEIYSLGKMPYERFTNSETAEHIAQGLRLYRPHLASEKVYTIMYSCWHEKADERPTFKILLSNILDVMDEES
Chain of TBK1 (human) (Q9UHD2 whole entry, looked up): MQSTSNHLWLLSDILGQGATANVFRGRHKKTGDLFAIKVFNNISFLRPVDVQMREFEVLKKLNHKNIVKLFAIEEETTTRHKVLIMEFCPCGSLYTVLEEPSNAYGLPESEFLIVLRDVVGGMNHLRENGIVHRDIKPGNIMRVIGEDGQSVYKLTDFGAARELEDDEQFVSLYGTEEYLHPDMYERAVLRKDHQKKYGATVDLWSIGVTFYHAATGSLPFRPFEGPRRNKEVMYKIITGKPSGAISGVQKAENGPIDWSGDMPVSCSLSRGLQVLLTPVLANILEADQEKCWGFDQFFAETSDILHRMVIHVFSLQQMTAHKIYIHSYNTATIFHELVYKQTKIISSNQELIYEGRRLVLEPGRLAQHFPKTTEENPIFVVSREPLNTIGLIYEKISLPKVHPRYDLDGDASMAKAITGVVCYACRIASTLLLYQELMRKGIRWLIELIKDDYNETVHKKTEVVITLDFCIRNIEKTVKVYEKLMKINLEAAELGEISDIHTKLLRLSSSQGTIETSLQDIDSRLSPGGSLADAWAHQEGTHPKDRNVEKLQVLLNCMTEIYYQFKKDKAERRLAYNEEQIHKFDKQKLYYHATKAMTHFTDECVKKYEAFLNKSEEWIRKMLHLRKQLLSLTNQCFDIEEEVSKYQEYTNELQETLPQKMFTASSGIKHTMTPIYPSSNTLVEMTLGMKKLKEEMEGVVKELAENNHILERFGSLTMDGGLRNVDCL
Chain of FGFR1 (human) (P11362 whole entry, looked up): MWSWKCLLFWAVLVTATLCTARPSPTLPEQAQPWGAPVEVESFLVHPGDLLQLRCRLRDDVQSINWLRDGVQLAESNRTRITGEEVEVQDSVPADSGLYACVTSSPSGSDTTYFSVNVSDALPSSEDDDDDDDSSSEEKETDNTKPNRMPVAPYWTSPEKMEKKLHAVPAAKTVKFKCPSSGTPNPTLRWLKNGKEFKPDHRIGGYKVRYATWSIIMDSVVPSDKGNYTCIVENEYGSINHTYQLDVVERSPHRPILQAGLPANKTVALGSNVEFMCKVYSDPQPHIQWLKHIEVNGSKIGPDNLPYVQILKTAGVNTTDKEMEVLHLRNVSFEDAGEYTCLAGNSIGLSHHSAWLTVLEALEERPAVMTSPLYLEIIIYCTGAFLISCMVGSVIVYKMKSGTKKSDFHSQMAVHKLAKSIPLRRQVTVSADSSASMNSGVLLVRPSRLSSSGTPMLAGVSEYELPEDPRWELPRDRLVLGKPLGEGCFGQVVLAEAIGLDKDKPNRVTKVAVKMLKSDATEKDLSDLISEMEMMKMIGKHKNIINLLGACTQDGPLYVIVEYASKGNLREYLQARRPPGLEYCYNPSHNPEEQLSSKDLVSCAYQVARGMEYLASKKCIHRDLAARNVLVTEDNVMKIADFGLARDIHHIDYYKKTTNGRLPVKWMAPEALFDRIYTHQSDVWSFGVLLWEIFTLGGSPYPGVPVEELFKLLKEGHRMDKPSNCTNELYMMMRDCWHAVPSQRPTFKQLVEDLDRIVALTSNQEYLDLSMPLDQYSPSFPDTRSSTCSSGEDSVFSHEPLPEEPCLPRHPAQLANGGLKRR
Chain of MAPK15 (human) (Q8TD08 whole entry, looked up): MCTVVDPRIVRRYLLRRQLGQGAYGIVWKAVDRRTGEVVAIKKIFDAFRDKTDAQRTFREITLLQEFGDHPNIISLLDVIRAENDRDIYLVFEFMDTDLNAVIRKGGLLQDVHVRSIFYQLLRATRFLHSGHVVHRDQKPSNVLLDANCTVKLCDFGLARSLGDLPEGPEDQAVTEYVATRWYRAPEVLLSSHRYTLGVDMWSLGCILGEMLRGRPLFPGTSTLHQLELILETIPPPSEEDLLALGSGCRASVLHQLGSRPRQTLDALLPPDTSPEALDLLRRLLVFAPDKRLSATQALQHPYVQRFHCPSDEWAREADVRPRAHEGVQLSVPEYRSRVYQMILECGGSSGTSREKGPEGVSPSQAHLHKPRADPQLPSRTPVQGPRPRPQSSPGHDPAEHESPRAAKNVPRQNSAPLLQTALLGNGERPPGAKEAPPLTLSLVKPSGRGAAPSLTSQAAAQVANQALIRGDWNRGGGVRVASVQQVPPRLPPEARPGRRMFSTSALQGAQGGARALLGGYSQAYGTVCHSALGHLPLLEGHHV

residual activity ([2]; compound 10.0 µM): 90%
residual activity ([3]; compound 10.0 µM): 97%
residual activity ([4]; compound 10.0 µM): 69%
residual activity ([5]; compound 10.0 µM): 90%
residual activity ([6]; compound 10.0 µM): 83%
residual activity ([7]; compound 10.0 µM): 72%
residual activity ([8]; compound 10.0 µM): 80%
residual activity ([9]; compound 10.0 µM): 92%
residual activity ([10]; compound 10.0 µM): 69%
residual activity ([11]; compound 10.0 µM): 94%
residual activity ([12]; compound 10.0 µM): 102%
residual activity ([13]; compound 10.0 µM): 105%
residual activity ([14]; compound 10.0 µM): 81%
residual activity [15]: 90%
residual activity ([16]; compound 10.0 µM): 87%
residual activity ([17]; compound 10.0 µM): 88%
residual activity ([18]; compound 10.0 µM): 92%
residual activity ([19]; compound 10.0 µM): 81%
residual activity ([20]; compound 10.0 µM): 69%
residual activity ([21]; compound 10.0 µM): 94%
residual activity ([22]; compound 10.0 µM): 85%
residual activity ([23]; compound 10.0 µM): 92%
residual activity ([24]; compound 10.0 µM): 111%
residual activity ([25]; compound 10.0 µM): 97%
residual activity ([26]; compound 10.0 µM): 118%
residual activity ([27]; compound 10.0 µM): 106%
residual activity ([28]; compound 10.0 µM): 86%
residual activity ([29]; compound 10.0 µM): 90%
residual activity ([30]; compound 10.0 µM): 81%
residual activity ([31]; compound 10.0 µM): 124%
residual activity ([32]; compound 10.0 µM): 94%
residual activity ([33]; compound 10.0 µM): 82%
residual activity ([34]; compound 10.0 µM): 83%
SMILES: CC(C)C[C@H](NC(=O)CNC(=O)c1cc(Cl)ccc1Cl)B1OC(=O)CC(CC(=O)O)(C(=O)O)O1 (stereo partly specified)
residual activity ([1]; compound 10.0 µM): 100%

residual activity ([2]; compound 10.0 µM): 102%
residual activity ([2]; compound 50.0 µM): 124%
residual activity ([3]; compound 1.0 µM): 97%
residual activity ([3]; compound 10.0 µM): 95%
residual activity ([3]; compound 50.0 µM): 93%
residual activity ([4]; compound 10.0 µM): 104%
residual activity ([4]; compound 50.0 µM): 104%
residual activity ([5]; compound 1.0 µM): 94%
residual activity ([5]; compound 10.0 µM): 107%
residual activity ([5]; compound 50.0 µM): 108%
residual activity ([6]; compound 1.0 µM): 97%
residual activity ([6]; compound 10.0 µM): 61%
residual activity ([6]; compound 50.0 µM): 71%
residual activity ([35]; compound 1.0 µM): 94%
residual activity ([35]; compound 10.0 µM): 86%
residual activity ([35]; compound 50.0 µM): 91%
residual activity ([7]; compound 10.0 µM): 80%
residual activity ([7]; compound 50.0 µM): 76%
residual activity ([8]; compound 1.0 µM): 90%
residual activity ([8]; compound 10.0 µM): 106%
residual activity ([8]; compound 50.0 µM): 126%
residual activity ([9]; compound 10.0 µM): 86%
residual activity ([9]; compound 50.0 µM): 91%
residual activity ([10]; compound 10.0 µM): 91%
residual activity ([10]; compound 50.0 µM): 93%
residual activity ([11]; compound 10.0 µM): 101%
residual activity ([11]; compound 50.0 µM): 90%
residual activity ([12]; compound 1.0 µM): 90%
residual activity ([12]; compound 10.0 µM): 93%
residual activity ([12]; compound 50.0 µM): 97%
residual activity ([13]; compound 10.0 µM): 107%
residual activity ([13]; compound 50.0 µM): 111%
residual activity ([14]; compound 10.0 µM): 92%
residual activity ([14]; compound 50.0 µM): 83%
residual activity ([16]; compound 50.0 µM): 104%
residual activity ([17]; compound 1.0 µM): 74%
residual activity ([17]; compound 10.0 µM): 79%
residual activity ([17]; compound 50.0 µM): 76%
residual activity ([18]; compound 10.0 µM): 107%
residual activity ([18]; compound 50.0 µM): 96%
residual activity ([19]; compound 1.0 µM): 108%
residual activity ([19]; compound 10.0 µM): 107%
residual activity ([19]; compound 50.0 µM): 90%
residual activity ([20]; compound 10.0 µM): 117%
residual activity ([20]; compound 50.0 µM): 104%
residual activity ([21]; compound 10.0 µM): 102%
residual activity ([21]; compound 50.0 µM): 92%
residual activity ([22]; compound 1.0 µM): 86%
residual activity ([22]; compound 10.0 µM): 95%
residual activity ([22]; compound 50.0 µM): 92%
residual activity ([23]; compound 10.0 µM): 95%
residual activity ([23]; compound 50.0 µM): 81%
residual activity ([24]; compound 10.0 µM): 84%
residual activity ([24]; compound 50.0 µM): 94%
residual activity ([25]; compound 1.0 µM): 86%
residual activity ([25]; compound 10.0 µM): 79%
residual activity ([25]; compound 50.0 µM): 88%
residual activity ([26]; compound 10.0 µM): 89%
residual activity ([26]; compound 50.0 µM): 97%
residual activity ([27]; compound 10.0 µM): 88%
residual activity ([27]; compound 50.0 µM): 101%
residual activity ([28]; compound 1.0 µM): 98%
residual activity ([28]; compound 10.0 µM): 77%
residual activity ([28]; compound 50.0 µM): 80%
residual activity ([29]; compound 10.0 µM): 104%
residual activity ([29]; compound 50.0 µM): 94%
residual activity ([30]; compound 10.0 µM): 99%
residual activity ([30]; compound 50.0 µM): 97%
residual activity ([31]; compound 10.0 µM): 84%
residual activity ([31]; compound 50.0 µM): 85%
residual activity ([32]; compound 1.0 µM): 94%
residual activity ([32]; compound 10.0 µM): 94%
residual activity ([32]; compound 50.0 µM): 93%
residual activity ([33]; compound 1.0 µM): 99%
residual activity ([33]; compound 10.0 µM): 100%
residual activity ([33]; compound 50.0 µM): 102%
residual activity ([34]; compound 1.0 µM): 99%
residual activity ([34]; compound 10.0 µM): 99%
residual activity ([34]; compound 50.0 µM): 102%
SMILES: CCCC(CCC)C(=O)O
residual activity ([1]; compound 1.0 µM): 90%
residual activity ([1]; compound 10.0 µM): 86%
residual activity ([1]; compound 50.0 µM): 94%

Source: the kinase profiling compilation of Christmann-Franck et al. (2016)
